Calls of active or inactive are those of the source. No cut-off for these calls is given here.
Tests used:
[1] = Inhibition of sheep brain tubulin polymerization assessed as reduction in rate of microtubule assembly by DAPI-fluorescence based assay; set-up: species or system Ovis aries
HCT-116 = assay: Antiproliferative activity against human HCT116 cells after 72 hrs by MTS assay; assay type: functional; conditions: Homo sapiens, HCT-116, 72 h
Histone deacetylase 8 = target: T1, Histone deacetylase 8 (Homo sapiens, UniProt Q9BY41); assay: Inhibition of human recombinant HDAC8 after 30 mins using fluorogenic substrate by fluorimetric assay; conditions: read-out: IC50
T1 sequence (Q9BY41 whole entry): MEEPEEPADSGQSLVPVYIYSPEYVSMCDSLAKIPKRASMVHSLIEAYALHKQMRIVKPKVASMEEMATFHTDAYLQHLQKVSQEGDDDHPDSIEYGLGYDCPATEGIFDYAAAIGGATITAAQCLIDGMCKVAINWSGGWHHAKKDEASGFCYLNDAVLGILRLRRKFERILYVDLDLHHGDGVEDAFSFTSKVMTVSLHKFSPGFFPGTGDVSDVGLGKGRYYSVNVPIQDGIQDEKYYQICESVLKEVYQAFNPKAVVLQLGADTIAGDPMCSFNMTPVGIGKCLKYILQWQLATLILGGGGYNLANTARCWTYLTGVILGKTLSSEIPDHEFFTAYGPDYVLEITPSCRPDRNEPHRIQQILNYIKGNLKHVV

[2] = target: T2, Protein deacetylase HDAC6 (Homo sapiens, UniProt Q9UBN7)
T2 sequence (Q9UBN7 whole entry): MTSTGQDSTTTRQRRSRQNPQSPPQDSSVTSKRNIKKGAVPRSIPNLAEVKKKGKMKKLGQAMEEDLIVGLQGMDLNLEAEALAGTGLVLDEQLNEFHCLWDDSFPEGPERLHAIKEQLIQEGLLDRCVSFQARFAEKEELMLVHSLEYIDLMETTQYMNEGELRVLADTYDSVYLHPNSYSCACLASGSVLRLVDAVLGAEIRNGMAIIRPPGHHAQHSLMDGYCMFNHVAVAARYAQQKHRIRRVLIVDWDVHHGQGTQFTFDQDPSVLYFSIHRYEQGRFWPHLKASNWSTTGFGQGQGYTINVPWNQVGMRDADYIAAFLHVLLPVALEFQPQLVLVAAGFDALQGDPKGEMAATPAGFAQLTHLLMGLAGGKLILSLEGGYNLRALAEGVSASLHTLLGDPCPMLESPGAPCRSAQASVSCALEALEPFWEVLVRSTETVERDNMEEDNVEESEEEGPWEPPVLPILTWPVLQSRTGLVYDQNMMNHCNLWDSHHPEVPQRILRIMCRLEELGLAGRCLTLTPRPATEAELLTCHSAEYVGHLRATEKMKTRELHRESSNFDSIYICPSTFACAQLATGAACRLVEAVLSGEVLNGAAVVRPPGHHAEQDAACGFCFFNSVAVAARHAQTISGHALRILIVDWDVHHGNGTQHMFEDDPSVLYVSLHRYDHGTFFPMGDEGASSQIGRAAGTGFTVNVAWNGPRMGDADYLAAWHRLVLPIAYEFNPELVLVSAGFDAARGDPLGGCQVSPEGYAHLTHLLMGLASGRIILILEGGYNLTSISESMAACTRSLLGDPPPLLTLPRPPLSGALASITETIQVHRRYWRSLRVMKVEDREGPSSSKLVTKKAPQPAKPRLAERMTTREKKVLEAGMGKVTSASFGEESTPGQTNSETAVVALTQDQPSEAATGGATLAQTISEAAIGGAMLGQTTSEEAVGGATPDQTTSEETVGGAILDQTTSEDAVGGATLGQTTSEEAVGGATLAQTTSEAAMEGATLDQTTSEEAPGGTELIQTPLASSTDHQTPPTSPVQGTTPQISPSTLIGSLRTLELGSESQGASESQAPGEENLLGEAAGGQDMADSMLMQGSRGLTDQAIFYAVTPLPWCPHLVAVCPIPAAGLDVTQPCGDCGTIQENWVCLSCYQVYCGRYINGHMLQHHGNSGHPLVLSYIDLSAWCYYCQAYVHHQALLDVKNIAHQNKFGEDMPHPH
Description: Inhibition of human recombinant HDAC6 after 30 mins using fluorogenic substrate by fluorimetric assay

Ovis aries = species on record: Ovis aries; assay: Inhibition of sheep brain tubulin polymerization assessed as reduction in rate of microtubule assembly at 200 uM by DAPI-fluorescence based assay

Row | SMILES | IC50 [1] | GI50 (HCT-116) | IC50 (Histone deacetylase 8) | IC50 [2] | inhibition (Ovis aries)
1 | C=C(c1ccc(OC)c(C#CCCC(=O)OCC)c1)c1cc(OC)c(OC)c(OC)c1 | – | 1000 nM | – | – | inactive
2 | C=C(c1ccc(OC)c(OCCCC(=O)NO)c1)c1cc(OC)c(OC)c(OC)c1 | – | 500 nM | – | – | inactive
3 | C=C(c1ccc(OC)c(C#CCCCC(=O)OCC)c1)c1cc(OC)c(OC)c(OC)c1 | – | 3000 nM | – | – | inactive
4 | C=C(c1ccc(OC)c(OCCCCCCC(=O)NO)c1)c1cc(OC)c(OC)c(OC)c1 | – | 2500 nM | – | – | inactive
5 | C=C(c1ccc(OC)c(C#CCCCC(=O)NO)c1)c1cc(OC)c(OC)c(OC)c1 | 18000 nM | 372 nM | – | – | –

Stronger by GI50 (HCT-116), values ahead:

Row | IC50 [1] | GI50 (HCT-116) | IC50 (Histone deacetylase 8) | IC50 [2] | inhibition (Ovis aries) | SMILES
6 | 4000 nM | 85 nM | – | – | – | C=C(c1ccc(OC)c(/C=C/C(=O)OC)c1)c1cc(OC)c(OC)c(OC)c1
7 | 7500 nM | 37.2 nM | – | – | – | C=C(c1cc(OC)c(OC)c(OC)c1)c1ccc(OC)c(/C=C/C(=O)NO)n1
8 | 81000 nM | 36 nM | – | – | – | C=C(c1cc(OC)c(OC)c(OC)c1)c1ccc2c(c1)cc(C(=O)NO)n2C
9 | 2400 nM | 22 nM | – | – | – | C=C(c1ccc(OC)c(OCC(=O)NO)c1)c1cc(OC)c(OC)c(OC)c1
10 | 5400 nM | 20 nM | 6200 nM | 3800 nM | – | C=C(c1cc(OC)c(OC)c(OC)c1)c1ccc2c(c1)cc(/C=C/C(=O)NO)n2C
11 | 1700 nM | 8 nM | – | – | – | C=C(c1ccc(OC)c(C#CCCC(=O)NO)c1)c1cc(OC)c(OC)c(OC)c1

From ChEMBL document CHEMBL4325829, “Design and Synthesis of Tubulin and Histone Deacetylase Inhibitor Based on iso-Combretastatin A-4” (J Med Chem, 2018)
